Columns and labels:
[1] = system: HSCs of treated mice; assay: In vivo glycolytic inhibition; set-up: species or system mouse
Protocol: In vivo Glycolytic Inhibition. To assess the effect of inhibition of glycolysis on MMP in HSCs, mice received intraperitoneal injections of either PBS or 2-DG 750 mg/kg every other day for 6 days after which total BM cells […] cells were isolated and MMP analyzed by flow cytometry in HSCs.

[2] = system: MMP-low and MMP-high HSCs; assay: LT-HSCs maintenance assay (viability, DAPI exclusion); type: cell-based
Protocol: LT-HSCs Maintenance Assay: FACS-purified MMP-low and MMP-high HSCs cells were cultured in serum-free Stemspan medium supplemented with SCF (10 ng/mL) and TPO (20 ng/mL), cultured as single or 1,000 yells or 2,000 cells/well, and treated with ConA (10-100 nM), or 2-Deoxy-Glucose (2-DG; 5-60 mM), α-Cyano-4-hydroxycinnamic acid (CHC, 10 mM), or 0.5% DMSO, incubated at 37° C. for the indicated time. Cells were then washed twice in PBS, re-suspended in PBS containing 1 μg/ml DAPI, and analyzed by flow cytometry after DAPI exclusion.

[3] = system: MMP-low and MMP-high LT-HSCs transplanted into lethally irradiated mice; type: in vivo
Protocol: Competitive In Vivo Long-Term Reconstitution Assay: MMP-low and MMP-high HSCs (LSKCD150^+CD48^−, LT-HSC; MMP^low/high) were FACS purified from CD45.1 mice and transplanted at the indicated dose of test cells with 2×10^5 CD45.2 bone marrow cells into lethally irradiated CD45.2 recipients (12 Gy as a split dose, 6.5 and 5.5 Gy, 4 hours apart). Donor (CD45.1) and recipient (CD45.2) mice were 8-12 weeks old. HSC frequency was determined by the limiting dilution assay (Hu & Smith, “ELDA: Extreme Limiting Dilution Analysis for Comparing Depleted and Enriched Populations in Stem Cell and Other Assays,” J. Immunol. Methods 347:7 0-78 (2009), which is hereby incorporated by reference in its entirety) based on the number of mice with […] reconstitution (CD45.1) at 16 weeks.
To assay the effect of glycolytic inhibition of HSCs in a competitive in vivo long-term reconstitution assay: FACS-sorted MMP-low and MMP-high LT-HSCs (CD45.1) were mixed with 2×10^5 CD45.2 total bone marrow cells and injected into lethally irradiated CD45.2 recipients. After 2 days mice were divided into four groups, MMP-low and MMP-high groups treated with PBS or 2-Deoxy-Glucose (2-DG, 1000 mg/kg) every other day for 30 days. Reconstitution of donor CD45.1 cells and lineage distribution were monitored monthly by staining blood cells with antibodies against CD45.1, CD4, CD8 (T), B220 (B), CD11b and Gr-1 (myeloid) cells. For secondary transplantations, 2×10^6 BM cells from primary recipients were transplanted into lethally irradiated secondary recipients. Donor CD45.1 cells contribution and lineage distribution were tracked from the peripheral blood by flow cytometry.

[4] = system: HSCs (LSK CD150+CD48-); assay: Mitochondrial membrane potential (TMRE) by flow cytometry; type: cell-based, mouse
Protocol: To measure mitochondrial membrane potential (“MMP”), Tetramethylrhodamine ethyl ester perchlorate (“TMRE”, 100 nM), which specifically accumulates within the mitochondrial matrix of live cells, was used in accordance with the manufacturer's instructions. In brief, cells were stained with the probe at 37° C. for 15 minutes post antibody staining, followed by washing and flow cytometry analysis or FACS purification. Probe responsiveness to MMP changes were tested using controls carbonyl cyanide 3-chlorophenylhydrazone (“CCCP”) and oligomycin, which decreased and increased fluorescence of TMRE respectively. MMP-low and MMP-high thresholds were determined as the lowest and highest 25% TMRE intensity HSCs. Reactive oxygen species (“ROS”) were measured using chloromethyl-dichlorodihydrofluorescein diacetate (“CM-H2DCFDA”) fluorescent probe as described in Rimmele et al., “Mitochondrial Metabolism in Hematopoietic Stem Cells Requires Functional FOXO3,”EMBO Rep. 16: 1164-1176 (2015); Yalcin et al., “ROS-Mediated Amplification of AKT/mTOR Signalling Pathway Leads to Myeloproliferative Syndrome in Foxo3(-/-) Mice,” EMBO J. 29: 4118-4131 (2010); and Yalcin et al., “Foxo3 Is Essential for the Regulation of Ataxia Telangiectasia Mutated and Oxidative Stress-mediated Homeostasis of Hematopoietic Stem Cells,” J. Biol. Chem. 283: 25692-25705 (2008), which are hereby incorporated by reference in their entirety. Flow cytometry acquisition was performed on the BD LSRII, while cell sorting was performed on the BD Influx. All flow cytometry analyses and quantification were done using FlowJo 10 (Treestar).

[5] = system: MMP-low and MMP-high HSCs; assay: Glucose uptake assay (2NBDG); type: cell-based, mouse; conditions: STF-31 (10, 20 μM), 18 hours
Protocol: Glucose Uptake Assay: For measurement of glucose uptake, freshly FACS-purified MMP-low and MMP-high HSCs (at least 2,000 cells pooled in average from 8 mice) were cultured immediately in […] of glucose, glutamine, pyruvate free medium containing 100 or 200 μM 2-(n-(7-nitrobenz-2-oxa-1,3-diazol-4-yl amino)-2-deoxyglucose (2-NBD-Glucose, 2NBDG) for 2 hours. Cells were then washed multiple times in PBS, re-suspended in PBS containing 1 μg/ml DAPI, and analyzed by flow cytometry for 2-NBD glucose fluorescence in the FITC channel. In some experiments cells were cultured in StemSpan medium (StemCell Technology) supplemented with SCF (100 ng/ml) and TPO (20 ng/ml), treated with or without STF-31 ([…]), ConA (25, 50 nM), dimethyl alpha ketoglutarate (MOG, 1 mM), methyl pyruvate (MP, 1 mM) or DMSO, incubated at 37° C. in a humidified atmosphere with 5% CO2 for 6 or 18 hours before removing culture medium from each well, washing extensively and adding […] of glucose, glutamine, pyruvate free medium containing […] of 2 NBDG for 2 hours before washing cells multiple times in PBS and analyzing by flow cytometry. Quantification of 2NBDG uptake was measured by the geometric mean fluorescence intensity (“MFI”) as well as % of 2NBDG^+ cells.

[6] = system: MMP-low and MMP-high HSCs; assay: Autophagic vacuole formation / lysosomal localization of mitochondria (confocal immunofluorescence); type: cell-based, mouse; set-up: number of autolysosomes (LC3 co-localization with LAMP1) / co-localization of TOM20 with LAMP1 in MMP-low and MMP-high HSCs: dose or concentration left out as unconfirmed
Text: Immunofluorescence Staining, Imaging, and Analysis—Super Resolution Confocal Microscopy: Images were acquired with a Zeiss LSM 880 confocal microscope equipped with Airyscan Super Resolution Imaging module, using a 100×/1.46 Alpha Plan Apochromat objective lens (Zeiss MicroImaging, Jena, Germany) with “optimal” (Nyquist) XY scaling. Z stacks through the entire cell were acquired at an […] (at least 20 optical sections) using a pixel dwell time of >50 microseconds and field dimensions of […] (20 MMP-low and 20 MMP-high HSCs analyzed). This was followed by Airyscan image processing (set at auto but rarely over 6.2) and analyses using ZEN image acquisition and processing software (ZEN blue/black). Maximum intensity projections shown in the figures were also obtained using ZEN Blue software.
Lysosomal Localization of Mitochondria. FACS-sorted MMP-low and MMP-high HSCs (LSKCD150^+CD48^-MMP-low/-high) were treated with DMSO control or leupeptin […] for 4 hours. HSCs were then fixed and imaged for TOM20 (mitochondria) and LAMP1 (lysosomes).
Autophagic Vacuole Formation. Accumulation of autophagy substrates, Translocase of outer membrane 20 (TOM20) or Map11c3a (LC3), was determined in the presence of amino acid-containing (DMSO) or -starved amino acid-depleted media, v-ATPase inhibitor concanamycin A (ConA 40nM), inhibitor of autophagosome-autolysosome fusion chloroquine (CQ, […]), or protease inhibitor, leupeptin […] following guidelines outlined for study of autophagy (Klionsky et al., “Guidelines for the Use and Interpretation of Assays for Monitoring Autophagy (3rd Edition),” Autophagy 12(1): 1-222 (2016) and Martinez-Lopez et al., “Autophagy Proteins Regulate ERK Phosphorylation,” Nat. Commun. 4: 2799 (2013), which are hereby incorporated by reference in their entirety). In brief, FACS-sorted
MMP-low and MMP- high HSCs were cultured in the presence or absence of indicated inhibitors for 4, 5, or 18 hours following which cells were subjected to immunofluorescence assays for TOM20, LC3 and/or LAMP1 or LAMP2 as described above. Analyses were performed to quantify the turnover of indicated protein in lysosomes by evaluating the accumulation of TOM20 or LC3 in the presence versus absence of an inhibitor. TOM20 and LC3 flux were determined by subtracting the colocalized value of inhibitor-untreated TOM20 or LC3 with LAMP1 from corresponding inhibitor-treated values. Images were captured using a Zeiss LSM880 Airyscan confocal microscope using 100 X objectives (Leica), and percentage colocalization was calculated using the JACoP plugin (NIH ImageJ).
Mitochondrial and Lysosome Morphology: Freshly isolated HSCs were analyzed for mitochondrial morphology. Each individual HSC (150 total) was analyzed by using Arivis Vision 4D software and classified as either fragmented or not fragmented in accordance with number of surfaces. Cells that fulfilled the definition of ‘fragmented’ contained 3 or more individual mitochondrial surfaces (Kask et al., “Fluorescence-intensity Distribution Analysis and Its Application in Biomolecular Detection Technology,” Proc. Natl. Acad. Sci. USA 96(24): 13756-13761 (1999), which is hereby incorporated by reference in its entirety). Lysosomes' fluorescence intensity or area profiling was calculated using ImageJ software enabling the detection of fluorescently labeled […] boundaries (lysosomal marker LAMP1), as reflected by sharp increases or decreases in fluorescence intensity. Channels displaying fluorescence for either mitochondria or lysosomes were thresholded with the IsoData option to delimit the boundaries of mitochondrial networks and lysosome morphology. The resulting outlines were measured using the analyzed particles option to determine the size of distinct particles representing mitochondrial networks or lysosomes. More than 50 cells/condition/experiment were analyzed for lysosomes. […]

[7] = recipients treated with 2-DG 1,000 mg/kg every other day for 30 days, after 4 months

**Q.** For O=CC[C@@H](O)[C@H](O)[C@H](O)CO [2-DG, 2-Deoxy D-Glucose], which “cellular viability after in vivo treatment” value ([1]; 2-DG 750 mg/kg every other day for 6 days) is on record?
**A.** did not have much of an effect

**Q.** What about the “overall MMP levels in long-term HSCs” value ([1]; 2-DG 750 mg/kg every other day for 6 days, intraperitoneal) of the same compound?
**A.** slightly but significantly reduced

**Q.** What about the “glucose uptake in HSCs with the highest MMP levels” value ([1]; in vivo 2-DG, 6 days) of the same compound?
**A.** reduced glucose uptake

**Q.** And the “effect on MMP-low HSCs (viability)” value ([2]; 2-DG 50 mM, 12 hours)?
**A.** did not have much of an effect

**Q.** And the “death of MMP-high HSCs after 24 h” value ([2]; 2-DG 50 mM, 24 h, not in MMP-low)?
**A.** even more pronounced

**Q.** And the “MMP-high HSCs died” value ([2]; 2-DG 50 mM, within 12 hours)?
**A.** over 60%

**Q.** And the “lineage output in recipients of MMP-high HSCs” value ([3]; 2-DG-treated recipients)?
**A.** balanced production of blood

**Q.** And the “systemic effect in the blood of transplanted mice” value ([3]; long-term (up to 16 weeks), normal diet)?
**A.** no systemic effect was detected

**Q.** What about the “enhancement of in vivo competitive repopulation ability of MMP-high HSCs” value [3, 7] of the same compound?
**A.** over 70 fold

**Q.** What about the “in vivo competitive repopulation ability of MMP-low HSCs” value [3, 7] of the same compound?
**A.** only subtle effects

**Q.** N#CC(C#N)=NNc1cccc(Cl)c1 [CCCP, carbonyl cyanide 3-chlorophenylhydrazone] was tested. Which “fluorescence of TMRE (probe responsiveness control)” value [4] did it give?
**A.** decreased

**Q.** For N#CC(=Cc1ccc(O)cc1)C(=O)O [CHC, a-cyano-4-hydroxycinnamate], which “decrease of survival in MMP-high HSCs” value ([2]; 10 mM CHC, 6 hours) is on record?
**A.** 80%

**Q.** What about the “effect on survival of MMP-low HSCs” value ([2]; 10 mM CHC, 6 hours) of the same compound?
**A.** negligible effect

**Q.** Which “glucose uptake in MMP-high HSCs” value [5] does the source give for CC(C)(C)c1ccc(S(=O)(=O)NCc2ccc(C(=O)Nc3cccnc3)cc2)cc1 [Glut1 inhibitor, STF-31] here?
**A.** decreased glucose uptake

**Q.** COc1ccc(CCN(C)CCCC(C#N)(c2ccc(OC)c(OC)c2)C(C)C)cc1OC (stereo not shown) [Verapamil] was tested. Which “TMRE levels or proportion of MMP-low HSCs” value ([4]; Verapamil 25 μM, 50 μM, MRP inhibition) did it give?
**A.** did not modulate significantly

**Q.** For CC(=O)N[C@@H](CC(C)C)C(=O)N[C@@H](CC(C)C)C(=O)N[C@H](C=O)CCCNC(=N)N [leupeptin], which “co-localization of TOM20 with LAMP1 in MMP-low and MMP-high HSCs” value ([6]; 4 h) is on record?
**A.** enhanced similarly

**Q.** And the “increase in LC3-positive puncta, MMP-high HSCs” value ([6]; 4 h)?
**A.** 3.6 fold

**Q.** And the “increase in LC3-positive puncta, MMP-low HSCs” value ([6]; 4 h)?
**A.** 1.6 fold

**Q.** And the “number of autolysosomes (LC3 co-localization with LAMP1)” value ([6]; 4 h)?
**A.** greater number of autolysosomes

**Q.** What about the “autolysosomal degradation (colocalization of LAMP1 with LC3)” value ([6]; ConA 40 nM, leupeptin 100 mM, chloroquine 40 mM, 18 hours, MMP-low and MMP-high HSCs) of the same compound?
**A.** dramatically prevented autolysosomal degradation

**Q.** What about the “size of lysosomes in HSCs” value ([6]; leupeptin, more evident in MMP-high HSCs) of the same compound?
**A.** further increased the size of lysosomes

**Q.** With CC[C@H]1/C=C/C=C/C[C@@H](C)[C@H](O)[C@@](C)(O)C(=O)[C@@H](C)[C@H](O)[C@@H](C)C(=O)[C@@H](C)[C@H](O)[C@@H](C)/C=C/C(=O)O[C@@H]2[C@H](C)[C@H](CC1)O[C@]1(CC[C@H](C)[C@H](C[C@@H](C)O)O1)[C@H]2C [oligomycin] as the compound, how does the “fluorescence of TMRE (probe responsiveness control)” value [4] read?
**A.** increased

Source: patent US20220243177A1, “METHODS OF CULTURING QUIESCENT HEMATOPOIETIC STEM CELLS AND TREATMENT METHODS” (priority 2019, published 2022)
